Measurements reported in article PMC6452685, “Lysyl-tRNA synthetase as a drug target in malaria and cryptosporidiosis” (Proceedings of the National Academy of Sciences of the …, 2019).

Tests used:
[1] = test system: Pf(TM90C2B); assay: Drug resistant P. falciparum TM90C2B, [3H]-hypoxanthine incorporation; format: cell-based; conditions: Plasmodium falciparum, atovaquone-resistant
Source text: 3.2 Cytotoxicity Studies (Dundee)
In vi t ro cy totox i ci ty s tudies can be ca rri ed out us i ng Hep G 2 (Human C aucas i an hepatocy te ca rci noma, ECACC cat. no. 850 114 30) us ed as i ndi cators f or g eneral mammal i an cel l tox i ci ty . […]
3.3 In vitro Cell Assay D ata Analysis (Du ndee) […]
as 0%. Qual i ty control c ri teri a for passi ng pl ates were as fol l ow s : Z’ > 0.
< 15 . T he f ormula used to calculate Z’ is 1- 3´ (St D e v _ hi gh + St D e v_ low) . […]
Al l EC50 Curve fitti ng was undertaken usi ng XLFi t versi on 4.2 usi ng Model 205 wi th the foll owi ng 4 paramet ri c equat i on: A + (?-A) ,where A=% i nhi bi ti on at bo ttom, B=% i nhi bi ti on at top, C= EC , […]
D= slope, x= inhibitor concentration a nd y= % inhibition. […]
was fixed to 100 only when at least 50% of inhibition was reached. […]
Hoffmann-La Ro che Ltd) a nd resi stant strai ns K1 and TM90C2B (fr om the Malaria Research an d Reference Reag ent Res ou rce C enter, accu rate d es cri pti ons of the g eneti c backg roun ds of thes e strains can be obtained at http://www.beiresources.org) were cultivated in a variation of the medium prev i ous l y des cri bed (5, 6), c onsi sti ng of RPMI 16 40 su ppl emented wi th 0.5% ALBUMAX® II, 25 m M Hepes , 25 mM NaHC O3 (pH 7. […] The re s ul t s were recorded and expressed as a percentage of the untreated controls. […]

[2] = test system: C. parvum; assay: Anti-Cryptosporidium in vivo efficacy in NOD SCID gamma mice; design: species or system mouse
Procedure: INF-γ–knockout mice ([28], [29]) were infected orally with Nluc-expressing transgenic C. parvum oocysts. Treatment started upon patency 4 d postinfection (p.i.), and mice were treated orally once a day for 7 d. Infection was monitored daily by luciferase measurements in pooled feces of the entire cage. Mice were followed for 3 wk after completion of drug treatment. […] NOD SCID gamma mice were infected with C. parvum oocysts ([26]). Treatment started 7 d p.i., and mice were treated orally once a day for 7 d. The study was run with four mice per cage; infection was monitored by quantitative PCR on day eight for individual mice, and data are shown as oocysts per milligram of feces. […]
Data analysis was performed using GraphPad Prism 7.0 (GraphPad S oftware), Excel 2016 (Microsoft ) and R free so ftware (https://www.r-project.org) for data pl otti ng and s tati s ti cal model li ng. […]
The Nl uc-C. parvum IFN-γ-knockout (IFN-γ KO) m ouse in vivo experiments were run in acco rdance with the publ i s hed method (22). Briefly, female C57BL/ 6 IFN-γ KO mi ce, aged 6–8 weeks were infected with 10,000 C. parvum UG A1 Nl uc (Vi naya k et al 2015, Natu re) tra ns g eni c oocys ts . Mi ce (n=5 per g rou p) w ere admi ni s t ered 20 mg /k g of comp o und 5 fo rmul ated i n 3% et hanol , 7% Tw een 8 0, 90 % saline or t he f ormul at i on (v ehi cl e) by o ral g av ag e. […]

## O=C(NCC1(O)CCC(F)(F)CC1)c1cc(=O)c2cc(F)ccc2o1 [Compound 5]
[1]
  EC50: 520 nM
[2]; NOD SCID gamma mouse, 20 mg/kg orally once a day for 7 d, day 8
  reduction in parasite levels compared with control: 100 fold
[2]; dosed orally for 7 d, NOD SCID gamma mouse model
  reduction of parasite burden: two orders of magnitude
